Experimental findings from publication PMC6208607, “Transport of Pregabalin Via L-Type Amino Acid Transporter 1 (SLC7A5) in Human Brain Capillary Endothelial Cell Line” (Pharmaceutical Research, 2018) are described below.

The target of assay [1] is T1, L-type amino acid transporter 1 (LAT1) (Homo sapiens, UniProt Q01650). As to the kind of experiment: LC-MS/MS uptake in LAT1-overexpressing HEK293 cells vs mock; inhibition of […]L-leucine uptake at […]. Also noted: gene SLC7A5; entire coding region for human SLC7A5, expressed in HEK293 cells; with 4F2 heavy chain (4F2hc), endogenous. In kind it is cell-based.
T1 sequence (Q01650 whole entry): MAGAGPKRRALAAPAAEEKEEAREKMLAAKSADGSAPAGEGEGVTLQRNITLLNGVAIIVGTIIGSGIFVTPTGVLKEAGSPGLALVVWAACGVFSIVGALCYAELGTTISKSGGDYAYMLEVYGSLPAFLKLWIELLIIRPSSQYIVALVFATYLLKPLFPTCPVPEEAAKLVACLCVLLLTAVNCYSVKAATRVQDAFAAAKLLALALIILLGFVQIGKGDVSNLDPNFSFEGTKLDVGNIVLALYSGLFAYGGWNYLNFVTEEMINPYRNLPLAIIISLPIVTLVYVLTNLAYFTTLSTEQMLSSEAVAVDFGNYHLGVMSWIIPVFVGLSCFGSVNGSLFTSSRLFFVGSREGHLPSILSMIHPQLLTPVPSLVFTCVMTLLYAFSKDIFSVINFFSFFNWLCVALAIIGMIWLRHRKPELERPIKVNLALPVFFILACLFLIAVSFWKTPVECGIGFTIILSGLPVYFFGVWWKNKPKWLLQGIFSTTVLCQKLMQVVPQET
T1 sequence (P08195 103-630 partner): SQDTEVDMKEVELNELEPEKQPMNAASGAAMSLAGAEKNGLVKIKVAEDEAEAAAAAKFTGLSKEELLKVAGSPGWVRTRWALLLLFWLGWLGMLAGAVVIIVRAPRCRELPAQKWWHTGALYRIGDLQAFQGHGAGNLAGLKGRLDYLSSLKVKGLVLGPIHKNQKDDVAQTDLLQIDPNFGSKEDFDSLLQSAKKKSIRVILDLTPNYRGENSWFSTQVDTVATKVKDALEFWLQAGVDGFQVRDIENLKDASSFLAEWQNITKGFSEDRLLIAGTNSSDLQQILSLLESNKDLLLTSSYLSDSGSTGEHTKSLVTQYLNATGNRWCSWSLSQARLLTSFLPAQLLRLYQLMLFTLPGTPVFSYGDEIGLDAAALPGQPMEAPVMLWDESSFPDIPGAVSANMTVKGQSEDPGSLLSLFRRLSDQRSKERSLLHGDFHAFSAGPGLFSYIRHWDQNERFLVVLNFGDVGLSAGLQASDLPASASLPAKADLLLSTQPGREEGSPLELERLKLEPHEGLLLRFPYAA
Assay [2] concerns the target T1, L-type amino acid transporter 1 (LAT1). As to the kind of experiment: inhibition of pregabalin uptake in hCMEC/D3 cells at […] (LAT1 role supported by siRNA). Further details: gene SLC7A5; endogenous LAT1 in hCMEC/D3 cells. The following applies: read-out: Uptake (% of Control). It is filed as cell-based.

Some results are limits rather than exact numbers.

As to `CC(C)C[C@H](CN)CC(=O)O` [pregabalin], the Michaelis constant (Km) in assay [1] came to 288 µM.

`Nc1cc(COc2c(Cl)cc(C[C@H](N)C(=O)O)cc2Cl)c2oc(-c3ccccc3)nc2c1` [JPH203]: in assay [2], the remaining activity at 10 µM is less than 6.53%.

By Km is commonly meant the substrate concentration at which the rate is half of its maximum.
